What was measured:
[1] = molecular target: T1, MC1-R (Mus musculus, UniProt Q01727); experiment: Competitive inhibition assay using [I^125]-NDP-α-MSH, B-16 mouse melanoma cell membranes; format: binding; conditions: for inhibition at 1 µM: 1 μM test compound, read-out: Inhibition at 1 μM (NDP-α-MSH) In Normal System, MC1-R; for Ki: read-out: Ki (nM) (NDP-α-MSH) In Normal System, MC1-R
T1 construct: B-16 mouse melanoma cells (containing MC1-R); endogenous in cells
Summary of the method: (§1)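 Tracer was 0.4 nM for MC3-R and MC5-R, 0.2 nM for MC4-R and 0.1 nM for MC1-R. Bound radioactivity was gamma-counted after filtration; values are triplicate means, with results below 0% reported as 0%.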

[2] = molecular target: T1, MC1-R; experiment: cAMP functional activity assay in B-16 mouse melanoma cells; format: cell-based; conditions: 1 μM concentration where stated
Experimental: (§2) General method for EC50 determination in functional activity assay. […] Data analysis and EC50 values were determined using nonlinear regression analysis with Prism Graph-Pad software.
(§3) Functional status. The agonist/antagonist status with respect to MC1-R, MC-3R, MC4-R and MC5-R of certain compounds of the invention was determined. Antagonistic activity was determined by measuring the inhibition of α-MSH-induced or NDP-α-MSH-induced cAMP levels following exposure to graded doses of compounds as in the preceding descriptions.

[3] = IP (and IN) food intake, mice; format: in vivo; conditions: mouse, IP, 4 hours
Summary of the method: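 Male Sprague-Dawley rats dosed IV (0.5-3, up to 10 mg/kg) or IP (0.5-10, up to 50 mg/kg); male C57BL/6 mice dosed IP. Change in food intake and body weight over 24 h post-dose versus 1-week vehicle baseline, with 48 and 72 h reversal checks.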

[4] = molecular target: T2, MC3-R (Homo sapiens, UniProt P41968); experiment: Competitive inhibition assay using [I^125]-NDP-α-MSH, hMC3-R membranes; format: binding; set-up: expressed in transfected cells; conditions: 1 μM test compound; read-out: Inhibition at 1 μM (NDP-α-MSH) In Normal System, MC3-R
T2 sequence (P41968 whole entry): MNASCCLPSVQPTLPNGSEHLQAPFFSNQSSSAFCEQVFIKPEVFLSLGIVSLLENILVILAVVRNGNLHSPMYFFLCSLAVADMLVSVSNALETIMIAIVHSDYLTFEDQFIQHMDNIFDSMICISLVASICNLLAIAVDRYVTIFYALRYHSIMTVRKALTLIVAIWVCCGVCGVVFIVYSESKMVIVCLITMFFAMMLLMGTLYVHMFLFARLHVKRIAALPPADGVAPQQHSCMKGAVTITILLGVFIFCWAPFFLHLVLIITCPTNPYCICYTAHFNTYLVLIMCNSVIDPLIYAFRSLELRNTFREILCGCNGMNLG
Summary of the method: as §1

[5] = molecular target: T3, MC5-R (Homo sapiens, UniProt P33032); experiment: Competitive inhibition assay using [I^125]-NDP-α-MSH, hMC5-R membranes; format: binding; set-up: expressed in transfected cells; conditions: 1 μM test compound; read-out: Inhibition at 1 μM (NDP-α-MSH) In Normal System, MC5-R
T3 sequence (P33032 whole entry): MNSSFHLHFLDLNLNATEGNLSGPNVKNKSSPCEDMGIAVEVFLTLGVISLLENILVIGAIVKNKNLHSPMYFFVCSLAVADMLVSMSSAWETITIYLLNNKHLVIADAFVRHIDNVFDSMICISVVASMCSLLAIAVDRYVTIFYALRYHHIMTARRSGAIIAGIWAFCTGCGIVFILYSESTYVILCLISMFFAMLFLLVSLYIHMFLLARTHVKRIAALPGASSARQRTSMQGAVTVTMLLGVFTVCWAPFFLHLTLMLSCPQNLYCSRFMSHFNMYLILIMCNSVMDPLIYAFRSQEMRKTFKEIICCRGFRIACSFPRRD
Summary of the method: as §1

[6] = molecular target: T4, MC4-R (Homo sapiens, UniProt P32245); experiment: cAMP functional activity assay in HEK-293 cells, normal system; format: cell-based; set-up: expressed in transfected cells; host or cells: HEK-293; conditions: for functional status at MC4-R in cAMP assay: normal system, 1 μM concentration where stated; for intrinsic activity at MC4-R in a normal system: normal receptor density system, NDP-α-MSH = 1.0
T4 sequence (P32245 whole entry): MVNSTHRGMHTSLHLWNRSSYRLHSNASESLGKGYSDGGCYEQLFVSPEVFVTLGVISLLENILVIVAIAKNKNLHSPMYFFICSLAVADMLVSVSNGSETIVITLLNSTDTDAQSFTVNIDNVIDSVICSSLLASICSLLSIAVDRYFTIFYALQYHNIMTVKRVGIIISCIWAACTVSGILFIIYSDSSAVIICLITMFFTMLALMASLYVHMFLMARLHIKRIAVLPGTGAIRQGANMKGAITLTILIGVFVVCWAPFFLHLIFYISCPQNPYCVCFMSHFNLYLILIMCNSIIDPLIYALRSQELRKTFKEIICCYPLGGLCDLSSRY

[7] = molecular target: T3, MC5-R; experiment: cAMP functional activity assay in HEK-293 cells; format: cell-based; set-up: expressed in transfected cells; host or cells: HEK-293; conditions: 1 μM concentration where stated
Experimental: as §2, §3

[8] = molecular target: T4, MC4-R; experiment: Assay for neutral antagonist, Schild analysis (pA2) against NDP-α-MSH; format: cell-based; set-up: expressed in transfected cells; host or cells: HEK-293; conditions: Schild analysis vs NDP-α-MSH; for Kb: read-out: pA2 value as antagonist at MC4-R in a normal system (converted)
Experimental: Assay for Neutral Antagonist. […] These studies were carried out in HEK-293 cells expressing the MC4-R receptor. Cells were incubated with the compounds in the presence of the agonist NDP-α-MSH and the extent of antagonism was measured by the decrease in the level of intracellular cAMP. Screening the compounds for antagonists was done at a single concentration of NDP-α-MSH (1.0 nM) over a compound concentration range of 0.5-5000 nM.
Experimental details were similar to the analysis for agonistic activity described above. Briefly, cells were pre-incubated for 30 minutes with the test compounds at concentrations between 0.5 nM and 5000 nM. The cells were then stimulated with NDP-α-MSH at a concentration of 1 nM for 1 hour. For Schild analysis, the interactions were studied using at least 3 concentrations of the compounds, separated by a log unit, over a full range of the agonist (0.005-5000 nM). cAMP levels was measured in the cell lysates after appropriate dilution. Nonlinear regression analysis with Prism Graph-Pad software was used for Schild analysis and to obtain EC50 values. pA2 values were derived from the Schild plot of the data.

[9] = molecular target: T4, MC4-R; experiment: Competitive inhibition assay using [I^125]-NDP-α-MSH, hMC4-R membranes; format: binding; set-up: host or cells: TREx-293 (HEK-293 stably expressing Tet repressor); conditions: 1 μM test compound; read-out: Inhibition at 1 μM (NDP-α-MSH) In Normal System, MC4-R
Summary of the method: as §1

[10] = molecular target: T4, MC4-R; experiment: cAMP agonist stimulation, low receptor density system (0.1 ng/mL doxycycline); conditions: for Efficacy/Intrinsic Activity: 0.1 ng/mL doxycycline, low receptor density hMC4-R system, NDP-α-MSH maximal cAMP = 1.0
[11] = molecular target: T4, MC4-R; experiment: cAMP agonist stimulation, high receptor density system (10 ng/mL doxycycline); conditions: for Efficacy/Intrinsic Activity: 10 ng/mL doxycycline, high receptor density hMC4-R system, NDP-α-MSH maximal cAMP = 1.0
[12] = Penile erection induction in male rats; format: in vivo; conditions: rat
Summary of the method: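 Male Sprague-Dawley rats (200-250 g), groups of 4-8, dosed IV or ICV at various doses and observed individually for penile erections. Only statistically relevant increases over vehicle-control mean PEs count as induction; IV responses below 1.0 PEs/rat treated as equivocal, some retested ICV.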

[13] = ICV food intake and body weight change; format: in vivo; conditions: rat, 1 nmol, 24 hours
Summary of the method: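 Rats fitted with intracerebroventricular cannulas and fed ad libitum got a single ICV dose of vehicle or compound (1-3 nmol). Food intake and body-weight change over the 24 h after dosing were compared with a 1-week vehicle baseline. Values at 48 h and 72 h were also recorded to follow return to baseline.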

[14] = molecular target: T2, MC3-R; experiment: cAMP functional activity assay in HEK-293 cells; format: cell-based; set-up: expressed in transfected cells; host or cells: HEK-293; conditions: 1 μM concentration where stated
Experimental: as §2, §3

[15] = IV and IP food intake and body weight change, rats; format: in vivo; conditions: rat, IV, 10 mg/kg, 24 hours
Experimental: IV and IP food intake and body weight change. Change in food intake and body weight was evaluated for selected compounds. Male Sprague-Dawley rats or male C57BL/6 mice were utilized. Animals were individually housed in conventional plexiglass hanging cages and maintained on a controlled 12 hour on/off light cycle. Water and powdered (LabDiet, 5P00 Prolab RMH 3000) or pelleted (Harlan Teklad 2018 18% Protein Rodent Diet) food was provided ad libitum. For 1 week before treatment, 24-hour food intake and body weight change was recorded to assess a baseline for the group during vehicle treatment. The rats were dosed IV with vehicle or selected compounds (0.5-3 mg/kg, and in some cases up to 10 mg/Kg) or dosed intraperitoneally (IP) with vehicle or selected compounds (0.5-10 mg/kg, and in some cases up to 50 mg/kg). Mice were dosed IP. The changes in body weight and food intake for the 24 hour period after dosing were determined. The changes in body weight and food intake for the 48 hour and 72 hour periods after dosing were also measured to determined reversal of changes in body weight and food intake effects back to baseline levels.

T1 sequence (Q01727 whole entry): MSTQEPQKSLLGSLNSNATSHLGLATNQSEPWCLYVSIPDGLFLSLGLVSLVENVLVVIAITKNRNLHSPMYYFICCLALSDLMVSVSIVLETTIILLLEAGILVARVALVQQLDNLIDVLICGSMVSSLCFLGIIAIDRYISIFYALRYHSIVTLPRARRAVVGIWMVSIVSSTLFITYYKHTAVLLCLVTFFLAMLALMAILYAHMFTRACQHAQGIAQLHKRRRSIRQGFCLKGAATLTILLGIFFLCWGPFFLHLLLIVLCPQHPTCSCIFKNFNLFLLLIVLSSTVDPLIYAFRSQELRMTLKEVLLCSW

Row | Molecule | inhibition at 1 µM [1] [%] | Ki [1] [nM] | functional status at MC1-R in cAMP assay [2] | inhibition at 1 µM [4] [%] | inhibition at 1 µM [5] [%] | functional status at MC4-R in cAMP assay [6] | functional status at MC5-R in cAMP assay [7] | Kb [8] [nM] | inhibition at 1 µM [9] [%] | Efficacy/Intrinsic Activity [10] | Efficacy/Intrinsic Activity [11] | Penile Erection IV ([12]; IV) | decrease in food intake [13] [%] | intrinsic activity at MC4-R in a normal system [6] | functional status at MC3-R in cAMP assay [14] | EC50 [11] [nM] | further results
1 | CC(C)C[C@@H]1CN(C(=O)[C@H](N)Cc2ccc(Cl)cc2Cl)[C@@H](CCCNC(=N)N)CN1CCc1ccc2ccccc2c1 [Example 4, N-{3-[1-[2(R)-Amino-3-(2,4-dichloro-phenyl)-propionyl]-5(R)-isobutyl-4-(2-naphthalen-2-yl-ethyl)-piperazin-2(S)-yl]-propyl}-guanidine] | 21 | 1360 | no intrinsic activity (intrinsic activity below 0.1 (10%) is classified as inactive or having no intrinsic activity) | 64 | 75 | no intrinsic activity (intrinsic activity below 0.1 (10%) is classified as inactive or having no intrinsic activity) | partial agonist (intrinsic activity between 0.1 (10%) and 0.7 (70%) is classified as a partial agonist) | 20 | 99 | None | None |  |  |  |  |  | inhibition in vivo at 10 mg/kg ([3]; 10 mg/kg, read-out: maximal decrease in food intake): 60%
2 | Cc1cc(Cl)ccc1C[C@@H](N)C(=O)N1C[C@@H](C)N(CCc2c[nH]c3ccccc23)C[C@@H]1CCCNC(=N)N [Example 9, N-(3-{1-(2(R)-Amino-(4-chloro-2-methyl-phenyl)-propionyl)-5(R)-methyl-4-[2-(1H-indol-3-yl)-ethyl]-piperazin-2(S)-yl}-propyl)-guanidine] | 40 | 1730 | no intrinsic activity (intrinsic activity below 0.1 (10%) is classified as inactive or having no intrinsic activity) | 74 | 75 | full agonist | no intrinsic activity (intrinsic activity below 0.1 (10%) is classified as inactive or having no intrinsic activity) |  | 98 | None | 0.73 | No | 16 | 1 | no intrinsic activity (intrinsic activity below 0.1 (10%) is classified as inactive or having no intrinsic activity) | 22 | Penile Erection ICV ([12]; ICV): No; penile erection response ([12]; ICV, 0.01 to 10 nmol): no penile erection response; penile erection response ([12]; IV, 0.3 to 30 μg/kg): no penile erection response; decrease in body weight [13]: 2%; maximal decrease in food intake ([3]; 3 mg/kg): 10%
3 | Cc1cc(Cl)ccc1C[C@@H](N)C(=O)N1C[C@@H](C)N(C(=O)Cc2ccc3ccccc3c2)C[C@@H]1CCCNC(=N)N [Example 10, N-{3-[1-[2(R)-Amino-3-(4-chloro-2-dimethyl-phenyl)-propionyl]-5(R)-methyl(2-naphthalen-2-yl-acetyl)-piperazin-2(S)-yl]-propyl}-guanidine] | 3 | 462 | partial agonist (intrinsic activity between 0.1 (10%) and 0.7 (70%) is classified as a partial agonist) | 34 | 36 | agonist (intrinsic activity of 0.7 (70%) or higher is classified as an agonist) | agonist (intrinsic activity of 0.7 (70%) or higher is classified as an agonist) |  | 96 | 0.23 | 0.69 | Yes* |  | 0.9 | partial agonist (intrinsic activity between 0.1 (10%) and 0.7 (70%) is classified as a partial agonist) | 26 | animals responding ([12]; IV, 0.3 to 30 μg/kg): not more than 66%; maximal decrease in food intake [15]: 33%; maximal decrease in food intake ([3]; 10 mg/kg): 27%; EC50 [10]: 38 nM
4 | N=C(N)NCCC[C@H]1C(=O)N2C(CC[C@@H]2COc2ccc3ccccc3c2)N1C(=O)[C@@H](Cc1ccc(Cl)cc1Cl)NC(=O)[C@@H]1Cc2ccccc2CN1 (stereo partly drawn) [Example 22, (S)-1,2,3,4-Tetrahydro-isoquinoline-3-carboxylic acid {(R)-1-(2,4-dichloro-benzyl)-2-[(2S,5R)-2-(3-guanidino-propyl)-5-(naphthalen-2-yloxymethyl)-3-oxo-hexahydro-pyrrolo[1,2-a]imidazol-1-yl]-2-oxo-ethyl}-amide] | 75 | 111 |  | 88 | 96 | antagonist |  | 7.94 | 100 | None | 0.30 | No | 22 |  |  | 64 | penile erection response ([12]; IV): no penile erection response
5 | N-{3-[1-[2(R)-Amino-3-(2-methyl, 4-chloro-phenyl)-propionyl]-5(R)-methyl-4-(2-naphthalen-2-yl-ethyl)-piperazin-2(S)-yl]-propyl}-guanidine [Example 26] |  |  |  |  |  | no intrinsic activity (intrinsic activity below 0.1 (10%) is classified as inactive or having no intrinsic activity) |  |  |  |  |  |  |  |  |  |  | pA2 value as antagonist at MC4-R in a normal system [8]: 8.3

Reference: patent US20090081197A1 (Palatin Technologies, Inc., priority 2007, published 2009)
